For one compound, IC50 results are on record in ChEMBL document CHEMBL1921793, “Bacterial production of the tunicate-derived antitumor cyclic depsipeptide didemnin B” (J Nat Prod, 2011).

The IC50 is the concentration at which inhibition is half-maximal. Read a low IC50 as higher potency.

One assay has as its system A549. The experiment in a line: Cytotoxicity against human A549 cells after 96 hrs by microplate reader analysis. The class given is functional, cell-based. Particulars: A549, 96 h.
A further assay has as its system HT-29. The experiment in a line: Cytotoxicity against human HT-29 cells after 96 hrs by microplate reader analysis. Particulars: HT-29, 96 h. It counts as functional, cell-based.

In brackets after ≈: the same amount, converted by molar mass.

With `CC[C@H](C)[C@@H]1NC(=O)[C@@H](NC(=O)[C@@H](CC(C)C)N(C)C(=O)[C@@H]2CCCN2C(=O)[C@H](C)OC(C)=O)[C@H](C)OC(=O)[C@H](Cc2ccc(OC)cc2)N(C)C(=O)[C@@H]2CCCN2C(=O)[C@H](CC(C)C)NC(=O)[C@@H](C)C(=O)[C@H](C(C)C)OC(=O)C[C@@H]1O` [NORDIDEMNIN B], the IC50 in the assay with A549 came to 7 ng/mL (≈ 6.06 nM); in the assay on HT-29, 10 ng/mL (≈ 8.66 nM).
